Assay results taken from patent US4914096A, “6-aryl-substituted-4H-thieno(2,3-e)(1,2,4)triazolo(3,4-c)(1,4)diazepines” (priority 1989, dated 1990).
Where two headings read alike, the source gives them in different places.

Experiments:
PAF-induced hypotension = conditions: rat; for decrease in blood pressure: within 10 sec.
Description: Male Wistar rats, weighing approximately 300 gm, are anesthetized and their carotid arteries cannulated to enable their diastolic and systolic arterial blood pressure measurements to be recorded. PAF is then administered intravenously at either 100 or 500 ng/kg, and the blood pressure drop (within 10 sec.) and recovery time required to reach the pre-injection blood pressure level are measured. […] In order to measure the effectiveness of a compound for both the inhibition of blood pressure decreases and shortening of the recovery time, the test compound is administered intravenously over a range of between 5 and 7 dosage levels (1 or 2 test animals per dose) and between 1 and 5 minutes prior to the introduction of PAF to generate an ED50.

[1] = test system: PAF-induced human platelet aggregation; assay: Platelet Aggregation Inhibition Assay test (PAIA test); format: cell-based; conditions: C-16 PAF 0.1 μM or 0.01 μM; human platelet rich plasma
Description: All of the compounds of formula I, as well as their pharmaceutically acceptable acid addition salts, are useful as platelet activating factor inhibitors as indicated by their ability to inhibit platelet activating factor (PAF)-induced human platelet aggregation in vitro according to the Platelet Aggregation Inhibition Assay test (PAIA test) as follows:
Human subjects are kept aspirin free for one week and fasted overnight. Platelet rich plasma (PRP) is prepared by centrifugation (200×g.) of freshly drawn blood, anti-coagulated within 0.38% sodium citrate (final concentration). Platelet count is adjusted to 250,000 per μl using platelet poor plasma (PPP) obtained by a second centrifugation (700×g.) of the blood sample. An aliquot (0.38 ml) of the PRP is dispensed into cuvettes and maintained at room temperature (22° C.) until used (but for not more than two hours). […] The aggregation response is quantitated by determining the area under the curve (AUC). The AUC calculated for the inducing agent alone is considered to be one hundred percent. The potential percent inhibition of the aggregation response is determined by dividing the AUC generated in the presence of the compound by the AUC of the inducing agent alone, multiplying by 100 and then subtracting from 100.

[2] = target: T1, Human Platelet PAF Receptor (Homo sapiens, UniProt P25105); assay: Human Platelet PAF Receptor Assay test (Test A); format: binding
T1 construct: endogenous in cells; host or cells: washed platelets from the blood of healthy human donors
T1 sequence (P25105 whole entry): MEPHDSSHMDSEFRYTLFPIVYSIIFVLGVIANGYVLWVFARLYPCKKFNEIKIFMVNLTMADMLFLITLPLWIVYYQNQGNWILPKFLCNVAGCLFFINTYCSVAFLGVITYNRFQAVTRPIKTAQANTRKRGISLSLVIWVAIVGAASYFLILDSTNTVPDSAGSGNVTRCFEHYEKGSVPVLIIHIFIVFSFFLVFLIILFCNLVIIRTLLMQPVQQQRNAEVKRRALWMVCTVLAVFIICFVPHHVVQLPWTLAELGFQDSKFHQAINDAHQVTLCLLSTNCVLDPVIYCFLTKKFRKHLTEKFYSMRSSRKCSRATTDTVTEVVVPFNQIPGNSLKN
Description: Human blood is obtained by venipuncture of healthy, human donors into an anti-coagulant mixture containing 3.15% of trisodium citrate and 20 μg/ml of Prostaglandin I2 (PGI2) in a ratio of blood to anti-coagulant of 9:1. Platelet rich plama (PRP) is prepared by centrifugation (250×g) of the blood for 20 minutes at room temperature. The PRP is then centrifuged (900×g) for 10 minutes at room temperature and the platelet pellet is washed two times with Tris-Tyrode's (TT) solution having a pH of 7.4 and containing 0.25% bovine serum albumin (BSA), and to which has been added PGI2 at a final concentration of […]. The platelets are resuspended at […] in TT/BSA containing 1.4 mM CaCl2.2H2 O and 0.7 mM MgCl2.6H2 O. All of the tests are conducted in duplicate and each of the test compounds is evaluated at concentrations of 100, 50, 1 and 0.1 μM. […]
Each mixture is allowed to incubate at room temperature for one hour, after which time the reaction is terminated by the addition of 500 μl of ice cold TT/BSA and centrifugation (900×g) at 4° C. for 10 minutes. […] An additional 2 ml. of Scintiverse II is then added to the vials and, after mixing, the vials are counted for 1 minute in a liquid scintillation spectrometer. The amount of specific binding is calculated as the difference in cpm between the total bound (^3 H)-PAF and non-specifically bound (^3 H)-PAF. […]

[3] = test system: PAF-mediated bronchoconstriction; assay: PAF-induced Pulmonary Inflation Pressure (PIP) Increase test (Test B); format: in vivo, guinea pigs; conditions: Cavia porcellus, po, read-out: Test B ED50
Description: Furthermore, in view of their usefulness as PAF receptor antagonists, the compounds of formula I have been found useful as inhibitors of PAF-mediated bronchoconstriction, which property was evaluated by the PAF-induced Pulmonary Inflation Pressure (PIP) Increase test (Test B) as follows:
Male guinea pigs, weighing between 300 and 400 gm, are anesthetized, after which time trachea tube, carotid and jugular catheters are inserted. The test animal is then force ventilated employing a small animal Harvard respirator and the resistance to lung inflation (PIP) is measured utilizing a pressure transducer and recorder. The test compound is administered orally at 30 minutes prior to, intravenously (jugular) at 5 minutes prior to, or intraarterially at 1 to 5 minutes prior to the introduction of PAF. […] Any blood pressure measurements taken are recorded from a transducer attached to the carotid catheter. […] A reading at 15 minutes after the administration of PAF is termed the endpoint PIP. The effect of the test compound on the PIP response is determined by the difference between the percent increase in maximal PIP over baseline for the test animal to which has been administered PAF and the test compound compared to the test animal to which only PAF has been administered to generate an ED 5 C (dose needed to effect a 50% response).

[4] = test system: PAF-mediated extravasation; assay: PAF-induced Extravasation test (Test C); format: in vivo, guinea pigs; conditions: Cavia porcellus, po, read-out: Test C ED50

1-O-alkyl-2-acetyl-sn-glyceryl-3-phosphoryl-choline [PAF]
decrease in blood pressure (PAF-induced hypotension; 100 ng/kg i.v.): 30% | recovery time (PAF-induced hypotension; 500 ng/kg i.v., to pre-injection blood pressure level): 10 min | decrease in blood pressure (PAF-induced hypotension; 500 ng/kg i.v.): 52%

COc1cc(CCc2ccc(C3=NCc4nnc(C)n4-c4sccc43)cc2)cc(OC)c1OC [Example 1, 1-methyl-6-[4-[2-(3,4,5-trimethoxyphenyl)ethyl]phenyl]-4H-thieno[2,3-e][1,2,4]triazolo[3,4-c][1,4]diazepine]
IC50 [1]: 12 µM | IC50 [2]: 0.22 µM | ED50 [3]: 0.8 mg/kg | ED50 [4]: 0.5 mg/kg
